# Values quoted from earlier work as cited in US11103473B2, “Treatment and prevention of autism and autism spectrum disorders” (ASDERA LLC, priority 2013, dated 2021).
# Where two headings read alike, the source gives them in different places.
# What was measured:
# [1] = test system: Rat: Hint paw
# [2] = not given; remark: listed apart in the source
# [3] = test system: Mouse: writhing; details: relative to parent
# [4] = for ulcerative index (UI): equimolar dose, prodrug vs parent NSAID
# [5] = prodrug vs parent DCF
# [6] = not given; remark: listed apart in the source
# [7] = test system: animal models of seizures; details: in vivo
# [8] = biological target: albumin (Homo sapiens, UniProt P02768)
# [9] = for Cmax (μg/ml) / Tmax (h) / % excreted (5 d) / t1/2 (h): mean; for Cmax (μg/ml) / Tmax (h): Ito (1994); for % excreted (5 d): Sato (1997)
# [10] = pH 7.1
# [11] = not given; remark: listed apart in the source
# [12] = relative to parent, animal models
# albumin, sequence (P02768 25-609): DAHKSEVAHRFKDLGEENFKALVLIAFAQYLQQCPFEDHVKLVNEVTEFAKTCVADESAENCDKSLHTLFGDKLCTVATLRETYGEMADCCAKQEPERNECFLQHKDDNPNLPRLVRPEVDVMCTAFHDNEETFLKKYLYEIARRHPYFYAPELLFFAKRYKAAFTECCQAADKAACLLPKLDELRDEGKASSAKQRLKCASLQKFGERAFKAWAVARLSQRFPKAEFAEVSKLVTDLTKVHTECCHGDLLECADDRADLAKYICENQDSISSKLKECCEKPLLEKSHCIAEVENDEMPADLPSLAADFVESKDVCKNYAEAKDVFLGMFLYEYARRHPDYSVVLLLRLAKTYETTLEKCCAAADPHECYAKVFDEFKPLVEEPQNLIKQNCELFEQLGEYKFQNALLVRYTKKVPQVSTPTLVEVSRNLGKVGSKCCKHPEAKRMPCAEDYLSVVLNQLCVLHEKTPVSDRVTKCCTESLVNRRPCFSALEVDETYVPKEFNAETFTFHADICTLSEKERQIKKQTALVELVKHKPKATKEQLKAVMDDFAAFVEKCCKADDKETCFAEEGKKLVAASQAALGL
smiles,measurement,setting,value
Cc1cccc(Nc2ccccc2C(=O)OCc2c(C(C)C)c(=O)n(-c3ccccc3)n2C)c1C [MFA-PPA Without spacer],Rat: Hint paw vs MFA,[1]; @2-6 h,≈60%
same,t1/2 [h] pH 1.2 (SGF),simulated gi fluid,18.7 h
same,half-life in simulated gastric fluid,"simulated gi fluid, pH 1.2",18.69 h
same,half-life in simulated intestinal fluid,"[2]; simulated gi fluid, pH 7.4",8.98 h
same,t1/2 [h] pH 7.5 (SIF),[2]; simulated gi fluid,9.0 h
same,Mouse: writhing vs MFA,[3],63%
same,GI risk vs MFA,[4]; in vivo,30%
same,average number of ulcers,[4]; in vivo,1.00
"CC(=O)Oc1ccccc1C(=O)O [Aspirin, 2-(acetyloxy)benzoic acid]",ulcerative index (UI),[4],57.4
"O=C(O)Cc1ccccc1Nc1c(Cl)cccc1Cl [DCF, 2-(2-[(2,6-dichlorophenyl)amino]phenyl)acetic acid]",Cmax,[5],20190 ± 6010 ng/mL
same,gastric damage,[4]; 50 mg/kg,severe gastric damage
same,gastric damage,[4]; 200 mg/kg,markedly more damage
CC(=O)Nc1ccc(OC(=O)c2ccccc2Nc2cccc(C)c2C)cc1 [MFA-APAP Without spacer],Rat: Hint paw vs MFA,[1]; relative to parent,“better”
same,t1/2 [h] pH 1.2 (SGF),simulated gi fluid,“suffi-
same,t1/2 [h] pH 7.5 (serum/plasma),[6],“shorter
same,GI risk vs MFA,[4]; in vivo,“no
"CC(C)c1c(CO)n(C)n(-c2ccccc2)c1=O [HMP, 3-hydroxymethyl propyphenazon]",average number of ulcers,[4]; in vivo,1.25
Cc1cccc(Nc2ccccc2C(=O)O[C@@H]2C[C@H](C)CC[C@H]2C(C)C)c1C [MFA-menthol],Rat: Hint paw vs MFA,[1]; relative to parent,115%
same,t1/2 [h] pH 1.2 (SGF),simulated gastric fluid,20.8 h
same,t1/2 [h] pH 7.5 (SIF),[2]; simulated intestinal fluid,8.9 h
same,Mouse: writhing vs MFA,[3],115%
same,ulcer index vs parent drug,[4]; in vivo,better ulcer index than the parent drug
same,GI risk vs MFA,[4]; [12],50%
"Cc1cccc(Nc2ccccc2C(=O)O)c1C [MFA, 2-[(2,3-dimethylphenyl)amino]benzoic acid]",efficacy in animal models of seizures,[7],shown efficacy
same,bound to albumin,[8],> 90%
same,Cmax,[9]; Healthy Adults (18-56 yr),10000 ng/mL
same,Tmax,[9]; Healthy Adults (18-56 yr),2.0 h
same,t1/2,[9]; Healthy Adults (18-56 yr),2 to 4 h
same,Cmax (μg/ml),[9]; Preterm Children (0-5 d),3.8 (12) μg/ml
same,Tmax (h),[9]; Preterm Children (0-5 d),8.0 (12) h
same,% excreted (5 d),[9]; Preterm Children (0-5 d),16.6 (5) %
same,t1/2 (h),"[9]; Preterm Children (0-5 d), bottom: Sato (1997)",27.0 (5) h
same,t1/2 (h),"[9]; Preterm Children (0-5 d), top: Ito (1994)",21.7 (12) h
same,Cmax (μg/ml),[9]; Preterm Children (6-22 d),3.7 (5) μg/ml
same,Tmax (h),[9]; Preterm Children (6-22 d),6.8 (5) h
same,% excreted (5 d),[9]; Preterm Children (6-22 d),45.7 (1) %
same,t1/2 (h),"[9]; Preterm Children (6-22 d), bottom: Sato (1997)",8.4 (1) h
same,t1/2 (h),"[9]; Preterm Children (6-22 d), top: Ito (1994)",11.6 (5) h
same,water solubility,[10],0.004%
same,apparent volume of distribution (Vzss/F),[11]; 500 mg oral dose,1.06 L/kg
same,time of peak levels (PL),[11]; adults,2 h
same,steady-state concentrations,"[11]; adults, 1 g 4x daily, reached on the 2nd day",20 µg/mL
same,plasma PL,[11]; after a 1 g oral dose,10 to 20 µg/mL
same,time to plasma PL,[11]; after a 1 g oral dose,2 to 4 h
same,drug accumulation,[11]; after multiple doses,no evidence of drug accumulation
same,elimination half-life,[11]; in vivo,~2 h and ≈ 2 h
same,"fecal route of elimination, share of the dose",[11]; mainly unconjugated 3-carboxy MFA,≤ 20%
same,dose excreted into the urine as glucuronide of,[11]; share of MFA dose per species,6%
same,dose excreted into the urine,"[11]; total, primarily as glucuronides",Approximately 52%
same,mean absorption,[11]; two 500 mg single oral dose studies,30.5 µg/h/mL
same,average number of ulcers,[4]; in vivo,3.17
Cc1ccc(C(C)C)c(OC(=O)c2ccccc2Nc2cccc(C)c2C)c1 [MFA-thymol],Rat: Hint paw vs MFA,[1]; relative to parent,125%
same,t1/2 [h] pH 1.2 (SGF),simulated gi fluid,23.1 h
same,t1/2 [h] pH 7.5 (SIF),[2]; simulated gi fluid,7.1 h
same,Mouse: writhing vs MFA,[3],150%
same,ulcer index vs parent drug,[4]; in vivo,better ulcer index than the parent drug
same,GI risk vs MFA,[4]; [12],60%
"CC(C)Cc1ccc(C(C)C(=O)O)cc1 (stereo not shown) [ibuprofen, 2-[4-(2-methylpropyl)phenyl]propanoic acid]",ulcerative index (UI),[4],45.8
